These results are taken from US5459150A, “Indole derivatives which inhibit leukotriene biosynthesis” (Abbott Laboratories, priority 1993, dated 1995).

Assay [1] concerns LTB4 biosynthesis in human polymorphonuclear leukocytes (PMNL). The assay is described as follows: Inhibition of LTB4 biosynthesis in human PMNL (calcium ionophore A23187-induced). It counts as cell-based. To be noted: for IC50: A23187 8.3 μM, 15 min preincubation; for Human PMNL, inhibition of LTB4 biosynthesis, % @ 1.6: @ 1.6 (μM). The method, then: (§1) Inhibition of leukotriene biosynthesis by representative compounds of the present invention was evaluated in assays involving calcium ionophore-induced LTB4 biosynthesis expressed by human polymorphonuclear leukocytes (PMNL) or human whole blood. Human PMNL were isolated from heparinized (20 USP units/mL) venous blood using Ficoll-Hypaque Mono-Poly Resolving Medium. Human PMNL suspensions (5×10^6 cells/250 μL) were preincubated with test compounds or vehicle for 15 min at 37° C. followed by calcium ionophore A23187 challenge (final concentration of 8.3 μM) and the reaction terminated after 10 rain by adding two volumes of methanol containing prostaglandin B2 as an internal recovery standard. The methanol extracts were analyzed for LTB4 content by HPLC or radioimmunoassay.

The test system of assay [2] is LTB4 biosynthesis in human whole blood. The assay is described as follows: Inhibition of LTB4 biosynthesis in human whole blood (calcium ionophore A23187-induced). It counts as cell-based. The following applies: human heparinized whole blood, A23187, 30 min at 37° C. The procedure: as §1
The assay using human heparinized whole blood was incubated for 30 minutes at 37° C. after adding […] of ionophore A23187. The plasma layer was obtained by centrifugation and deproteinized by the addition of four volumes of methanol. The methanol extract was analyzed for LTB4 by HPLC or radioimmunoassay.

Assay [3] concerns leukotriene biosynthesis. The assay is described as follows: Inhibition of leukotriene biosynthesis in vivo, rat peritoneal anaphylaxis model. The following applies: one hour prior to antigen challenge. The procedure:
Inhibition of the biosynthesis of leukotrienes in vivo after oral administration of compound was determined using a rat peritoneal anaphylaxis model in a similar manner as that described by Young and coworkers (Young, P. R.; Dyer, R. D.; Carter, G. W. Fed. Proc., Fed. Am. Soc. Exp. Biol. 1985, 44, 1185). In this model rats were injected intraperitoneally (ip) with rabbit antibody to bovine serum albumin (BSA) and three hours later injected ip with BSA to induce an antigen-antibody response. Rats were sacrificed 15 minutes after this challenge and the peritoneal fluids were collected and analyzed for leukotriene levels. Test compounds were administered by garage one hour prior to the antigen challenge. Percent inhibition values were determined by comparing the treatment group to the mean of the control group. Compounds of this invention are orally effective in preventing the in vivo bio-synthesis of leukotrienes as illustrated for representative examples shown in Table 2.

Where a name gives a salt, the structure may show the parent alone.

A word on the IC50: it is the midpoint of a concentration-inhibition curve. For `CC(C)c1ccc2c(c1)c(SC(C)(C)C)c([C@@H]1C[C@H]1CN(O)C(N)=O)n2Cc1ccc(Cl)cc1` (relative stereo) [Example 14, N-hydroxy-N-[trans-2-(1-(4-chlorophenylmethyl)-3-(1,1-dimethylethylthio)-5-(1-methylethyl)indol-2-yl)cyclopropyl]methylurea], the “Human PMNL, inhibition of LTB4 biosynthesis, % @ 0.78” value in assay [1] (@ 0.78 (μM)) was 40%. Further, in assay [2] (Homo sapiens, 0.5 h), the IC50 was 2.5 µM.

`CC(C)c1ccc2c(c1)c(SC(C)(C)C)c([C@@H]1C[C@H]1CNC(N)=O)n2Cc1ccc(Cl)cc1` (relative stereo) [Example 23, N-[trans-2-(1-(4-chlorophenylmethyl)-3-(1,1-dimethylethylthio)-5-(1-methylethyl)indol-2-yl)cyclopropyl]methyl urea]: the IC50 stood at 0.4 µM in assay [1] and 2.7 µM in assay [2] (Homo sapiens, 0.5 h).

Take `CC(C)c1ccc2c(c1)c(SC(C)(C)C)c(CC(C)(C)NC(=O)N(C)O)n2Cc1ccc(Cl)cc1` [Example 1]: the IC50 in assay [1] came out at 0.15 µM; in assay [2] (Homo sapiens, 0.5 h), 1.3 µM.

For the compound `CC(C)c1ccc2c(c1)c(SC(C)(C)C)c(CC(C)(C)C=NO)n2Cc1ccc(Cl)cc1` [Example 2, 2,2-dimethyl-3-[1-(4-chlorophenylmethyl)-3-(1,1-dimethylethylthio)-5-(1-methylethyl)indol-2-yl]propionaldehyde oxime], the IC50 worked out at 0.27 µM in assay [1] and 2.2 µM in assay [2] (Homo sapiens, 0.5 h). In assay [3], the “Percent Leukotriene inhibition at 100 μmol/kg oral dose” value (“Percent Leukotriene inhibition” below) was 46%.

As to `CC(C)c1ccc2c(c1)c(SC(C)(C)C)c(CC(C)(C)CN(O)C(N)=O)n2Cc1ccc(Cl)cc1` [Example 3, N-hydroxy-N-2,2-dimethyl-3-[(1-(4-chlorophenylmethyl)-3-(1,1-dimethylethylthio)-5-(1-methylethyl))indol-2-yl]propyl urea], the IC50 in assay [1] amounted to 0.17 µM; in assay [2] (Homo sapiens, 0.5 h), 1.6 µM. Also, the “Percent Leukotriene inhibition” value in assay [3] is listed as 68%.

With `CC(C)c1ccc2c(c1)c(SC(C)(C)C)c(CCNC(=O)N(C)O)n2Cc1ccc(Cl)cc1` [Example 4, N'-hydroxy-N'methyl-N-2-[(1-(4-chlorophenylmethyl)-3-(1,1-dimethylethylthio)-5-(1-methylethyl))indol-2-yl]ethyl urea], the IC50 in assay [1] was 0.57 µM; in assay [2] (Homo sapiens, 0.5 h), 6.7 µM.

For the compound `CC(C)c1ccc2c(c1)c(SC(C)(C)C)c(CC(C)(C)CNC(N)=O)n2Cc1ccc(Cl)cc1` [Example 5, N-2,2-dimethyl-3-[(1-(4-chlorophenylmethyl)-3-(1,1-dimethylethyl-thio)-5-(1-methylethyl))indol-2-yl]propyl urea], the IC50 turned out to be 0.18 µM in assay [1] and 0.71 µM in assay [2] (Homo sapiens, 0.5 h). The “Percent Leukotriene inhibition” value in assay [3] was determined as 86%.

Regarding `CC(C)c1ccc2c(c1)c(SC(C)(C)C)c(CC(C)(C)C(=O)NCCNC(=O)N(C)O)n2Cc1ccc(Cl)cc1` [Example 6, N'-hydroxy-N'-methyl-N-2-[3-(1-(4-chlorophenylmethyl)-3-(1,1-dimethylethylthio)-5-(1-methylethyl)indol-2-yl)-2,2-dimethylpropionylamino]ethyl urea], the concentration for half-maximal inhibition (IC50) in assay [1] is 0.15 µM; in assay [2] (Homo sapiens, 0.5 h), 1.2 µM. Also, the “Percent Leukotriene inhibition” value in assay [3] amounted to 86%.

On to `CC(C)c1ccc2c(c1)c(SC(C)(C)C)c(CC(C)(C)C(=O)NCCC(=O)O)n2Cc1ccc(Cl)cc1` [Example 6.2], for which the IC50 was 0.31 µM in assay [1] and 1.4 µM in assay [2] (Homo sapiens, 0.5 h).

As for `CC(C)c1ccc2c(c1)c(SC(C)(C)C)c(CC(C)(C)CNCCCO)n2Cc1ccc(Cl)cc1` [Example 7, 1-(4-chlorophenylmethyl)-2-[2,2-dimethyl-3-((3-hydroxypropyl)amino)propyl]-3-(1,1-dimethylethylthio)-5-(1-methylethyl)indole], the IC50 is 4.2 µM in assay [1] and 6.9 µM in assay [2] (Homo sapiens, 0.5 h).

For the compound `CC(C)c1ccc2c(c1)c(SC(C)(C)C)c(CC(C)(C)NC(N)=O)n2Cc1ccc(Cl)cc1` [Example 8, N-2-[2-methyl-3-(1-(4-chlorophenylmethyl)-3-(1,1-dimethylethylthio)-5-(1-methylethyl)indol-2-yl)]propyl urea], the IC50 was found to be 0.4 µM in assay [1] and 5.2 µM in assay [2] (Homo sapiens, 0.5 h).

For the compound `CCOC(=O)CCNC(=O)NC(C)(C)Cc1c(SC(C)(C)C)c2cc(C(C)C)ccc2n1Cc1ccc(Cl)cc1` [Example 9], the “Human PMNL, inhibition of LTB4 biosynthesis, % @ 1.6” value in assay [1] was found to be 77%. The IC50 in assay [2] (Homo sapiens, 0.5 h) stood at 5.6 µM.

Take `CC(C)c1ccc2c(c1)c(SC(C)(C)C)c(CC(C)(C)NC(=O)NCCC(=O)O)n2Cc1ccc(Cl)cc1` [Example 10]: the “Human PMNL, inhibition of LTB4 biosynthesis, % @ 1.6” value in assay [1] was found to be 70%. The IC50 in assay [2] (Homo sapiens, 0.5 h) was found to be 2.5 µM.

On to `CCOC(=O)C(C)(C)Cc1c(C(=O)CCNC(=O)N(C)O)c2cc(C(C)C)ccc2n1Cc1ccc(Cl)cc1` [Example 11, N'-hydroxy-N'-methyl-N-'[1-(4-chlorophenylmethyl)-5-(1-methylethyl)-2-((2-methyl-2-ethoxycarbonyl)propyl)indol-2-yl]-3-oxopropylurea], for which the concentration for half-maximal inhibition (IC50) in assay [1] amounted to 1.5 µM; in assay [2] (0.5 h), 6.9 µM.

Regarding `CC(C)c1ccc2c(c1)c(SC(C)(C)C)c(CC(C)(C)C=NNC(=N)N)n2Cc1ccc(Cl)cc1` [Example 12, 1-(4-chlorophenylmethyl)-3-(1,1-dimethylethylthio)-2-[3-(2,2-dimethyl-1-guanidinylimino)propyl]-(1-methylethyl)indole], the “Human PMNL, inhibition of LTB4 biosynthesis, % @ 3.1” value in assay [1] (@ 3.1 (μM)) came to 100%. Also, in assay [2] (Homo sapiens, 0.5 h), the IC50 was found to be 1.3 µM.

In the case of `CC(C)c1ccc2c(c1)c(SC(C)(C)C)c(CC(C)(C)NC(=O)NCCC(=O)O)n2Cc1ccc(Cl)cc1` [Example 13, 3-[3-(1-(4-chlorophenylmethyl)-3-(1,1dimethylethylthio)-5-(1-methylethyl)indol-2-yl)-2-aminocarbonylamino-2-methylpropyl]propanoic acid, sodium salt], the IC50 in assay [2] (sodium salt) came out at 3 µM.

Consider `CC(C)c1ccc2c(c1)c(SC(C)(C)C)c(CC(C)(C)C(=O)O)n2Cc1ccncc1` [Example 15, 3-[3-(1,1-dimethylethylthio)-5-(1-methylethyl)-1-(4-pyridinylmethyl)indol-2-yl]-2,2-dimethylpropanoic acid], for which the IC50 in assay [1] is 0.09 µM; in assay [2] (Homo sapiens, 0.5 h) it was 0.9 µM.

With `CC(C)c1ccc2c(c1)c(SC(C)(C)C)c(CC(C)(C)C(=O)O)n2Cc1cccs1` [Example 16], the IC50 in assay [2] (Homo sapiens, 0.5 h) is 5.5 µM.

In the case of `CC(C)c1ccc2c(c1)c(SC(C)(C)C)c(CC(C)(C)C=NOCC(=O)O)n2Cc1ccc(Cl)cc1` [Example 20], the IC50 in assay [2] (Homo sapiens, 0.5 h) was 0.68 µM. Moreover, the “Percent Leukotriene inhibition” value in assay [3] worked out at 99%.

Take `CC(C)c1ccc2c(c1)c(SC(C)(C)C)c(CC(C)(C)CN)n2Cc1ccc(Cl)cc1` [Example 21]: in assay [2] (Homo sapiens, 0.5 h), the IC50 stood at 1.1 µM.

Regarding `CC(=O)NCC(C)(C)Cc1c(SC(C)(C)C)c2cc(C(C)C)ccc2n1Cc1ccc(Cl)cc1` [Example 22], the IC50 in assay [2] (Homo sapiens, 0.5 h) stood at 2.1 µM.
